{"source": "patent US20050027103A1", "about": "“Structural and cytoskeleton-associated protein” (priority 2001, published 2005)", "system": "expression of SEQ ID NO:33 in early confluent human C3C cells", "test": "Microarray analysis of SEQ ID NO:33 expression in response to a steroid", "assay_type": "cell-based", "conditions": "1, 10, and 100 μM beclomethasone for 1, 3, and 6 h", "description": "Total RNA is isolated from tissue samples using the guanidinium thiocyanate method and poly(A)^+ RNA is purified using the oligo-(dT) cellulose method. Each poly(A)^+ RNA sample is reverse transcribed using MMLV reverse-transcriptase, 0.05 pg/μl oligo-(dT) primer (21mer), 1×first strand buffer, 0.03 units/μl RNase inhibitor, 500 μM DATP, 500 μM dGTP, 500 μM dTTP, 40 μM dCTP, 40 μM dCTP-Cy3 (BDS) or dCTP-Cy5 (Amersham Biosciences). The reverse transcription reaction is performed in a […] containing 200 ng poly(A)^+ RNA with GENBRIGHT kits (Incyte). Specific control poly(A)^+ RNAs are synthesized by int vitro transcription from non-coding yeast genomic DNA. After incubation at 37° C. for 2 hr, each reaction sample (one with Cy3 and another with Cy5 labeling) is treated with […] of 0.5M sodiumhydroxide and incubated for 20 minutes at 85° C. to the stop the reaction and degrade the RNA. […]\nSequences of the present invention are used to generate array elements. […] PCR amplification uses primers complementary to the vector sequences flanking the cDNA inset Array elements are amplified in thity cycles of PCR from an initial quantity of 1-2 ng to a final quantity greater than 5 μg. […]"}
{"smiles": "C[C@H]1C[C@H]2[C@@H]3CCC4=CC(=O)C=C[C@]4(C)[C@@]3(Cl)[C@@H](O)C[C@]2(C)[C@@]1(O)C(=O)CO", "note": "[beclomethasone]", "values": [{"measurement": "expression of SEQ ID NO:33 decreased (microarray analysis)", "result": "at least 2 fold"}]}
